Consider 7 compounds from ChEMBL document CHEMBL5465560, “Selectivity Literature for EUbOPEN Chemogenomic Library” (2024).

The structures appear in SMILES notation. pIC50, pKd: −log10 of the molar value.

Test [1] has as its target Casein kinase I isoform gamma-3 (Homo sapiens) (UniProt Q9Y6M4). Nature of the test: Selectivity interaction (Kinase panel (Z-LYTE Assay)) EUB0001632a CSNK1G3. To be noted: at 10 µM.
For test [2], the target named is Activin receptor type-2B (Homo sapiens) (UniProt Q13705). The experiment in a line: Selectivity interaction (KinomeScan (DiscoverX)) EUB0000666a ACVR2B. To be noted: at 10 µM.
Sequence of Activin receptor type-2B (Homo sapiens) (Q13705 whole entry): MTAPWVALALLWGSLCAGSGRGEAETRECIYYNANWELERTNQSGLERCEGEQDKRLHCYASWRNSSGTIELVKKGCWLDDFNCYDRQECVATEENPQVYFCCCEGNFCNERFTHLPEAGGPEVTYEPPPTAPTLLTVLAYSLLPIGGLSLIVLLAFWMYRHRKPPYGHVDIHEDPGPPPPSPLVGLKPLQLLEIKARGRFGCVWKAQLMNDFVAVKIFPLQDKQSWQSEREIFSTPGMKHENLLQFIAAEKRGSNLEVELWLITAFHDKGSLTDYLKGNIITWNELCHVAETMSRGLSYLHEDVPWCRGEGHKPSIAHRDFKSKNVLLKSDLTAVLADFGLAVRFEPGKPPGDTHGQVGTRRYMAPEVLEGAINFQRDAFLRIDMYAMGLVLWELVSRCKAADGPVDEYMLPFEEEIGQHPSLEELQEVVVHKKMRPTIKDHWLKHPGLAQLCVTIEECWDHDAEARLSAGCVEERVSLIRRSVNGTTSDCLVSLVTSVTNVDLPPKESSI
The target of test [3] is Dual specificity tyrosine-phosphorylation-regulated kinase 1B (Homo sapiens, UniProt Q9Y463). Nature of the test: Selectivity interaction (Enzymatic assay) EUB0001550a DYRK1B.
Sequence of Dual specificity tyrosine-phosphorylation-regulated kinase 1B (Q9Y463 whole entry): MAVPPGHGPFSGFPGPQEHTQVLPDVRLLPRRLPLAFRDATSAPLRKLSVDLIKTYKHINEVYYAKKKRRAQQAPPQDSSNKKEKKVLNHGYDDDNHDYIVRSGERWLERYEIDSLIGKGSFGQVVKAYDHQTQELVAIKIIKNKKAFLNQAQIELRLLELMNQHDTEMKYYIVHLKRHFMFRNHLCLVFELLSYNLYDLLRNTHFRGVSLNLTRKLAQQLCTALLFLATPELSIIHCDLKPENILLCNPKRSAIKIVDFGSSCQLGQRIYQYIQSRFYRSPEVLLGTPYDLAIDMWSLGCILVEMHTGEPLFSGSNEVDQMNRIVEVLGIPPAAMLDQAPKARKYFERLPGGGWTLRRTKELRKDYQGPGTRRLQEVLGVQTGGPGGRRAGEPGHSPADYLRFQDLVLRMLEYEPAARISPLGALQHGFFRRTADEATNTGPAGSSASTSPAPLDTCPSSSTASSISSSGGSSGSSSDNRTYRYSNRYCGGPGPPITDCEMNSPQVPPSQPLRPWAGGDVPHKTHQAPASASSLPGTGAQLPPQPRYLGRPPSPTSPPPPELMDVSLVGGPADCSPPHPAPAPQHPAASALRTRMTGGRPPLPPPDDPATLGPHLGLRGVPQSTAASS
Test [4] addresses T1, Mitogen-activated protein kinase kinase kinase 19 (Homo sapiens) (UniProt Q56UN5).
T1 sequence (whole entry): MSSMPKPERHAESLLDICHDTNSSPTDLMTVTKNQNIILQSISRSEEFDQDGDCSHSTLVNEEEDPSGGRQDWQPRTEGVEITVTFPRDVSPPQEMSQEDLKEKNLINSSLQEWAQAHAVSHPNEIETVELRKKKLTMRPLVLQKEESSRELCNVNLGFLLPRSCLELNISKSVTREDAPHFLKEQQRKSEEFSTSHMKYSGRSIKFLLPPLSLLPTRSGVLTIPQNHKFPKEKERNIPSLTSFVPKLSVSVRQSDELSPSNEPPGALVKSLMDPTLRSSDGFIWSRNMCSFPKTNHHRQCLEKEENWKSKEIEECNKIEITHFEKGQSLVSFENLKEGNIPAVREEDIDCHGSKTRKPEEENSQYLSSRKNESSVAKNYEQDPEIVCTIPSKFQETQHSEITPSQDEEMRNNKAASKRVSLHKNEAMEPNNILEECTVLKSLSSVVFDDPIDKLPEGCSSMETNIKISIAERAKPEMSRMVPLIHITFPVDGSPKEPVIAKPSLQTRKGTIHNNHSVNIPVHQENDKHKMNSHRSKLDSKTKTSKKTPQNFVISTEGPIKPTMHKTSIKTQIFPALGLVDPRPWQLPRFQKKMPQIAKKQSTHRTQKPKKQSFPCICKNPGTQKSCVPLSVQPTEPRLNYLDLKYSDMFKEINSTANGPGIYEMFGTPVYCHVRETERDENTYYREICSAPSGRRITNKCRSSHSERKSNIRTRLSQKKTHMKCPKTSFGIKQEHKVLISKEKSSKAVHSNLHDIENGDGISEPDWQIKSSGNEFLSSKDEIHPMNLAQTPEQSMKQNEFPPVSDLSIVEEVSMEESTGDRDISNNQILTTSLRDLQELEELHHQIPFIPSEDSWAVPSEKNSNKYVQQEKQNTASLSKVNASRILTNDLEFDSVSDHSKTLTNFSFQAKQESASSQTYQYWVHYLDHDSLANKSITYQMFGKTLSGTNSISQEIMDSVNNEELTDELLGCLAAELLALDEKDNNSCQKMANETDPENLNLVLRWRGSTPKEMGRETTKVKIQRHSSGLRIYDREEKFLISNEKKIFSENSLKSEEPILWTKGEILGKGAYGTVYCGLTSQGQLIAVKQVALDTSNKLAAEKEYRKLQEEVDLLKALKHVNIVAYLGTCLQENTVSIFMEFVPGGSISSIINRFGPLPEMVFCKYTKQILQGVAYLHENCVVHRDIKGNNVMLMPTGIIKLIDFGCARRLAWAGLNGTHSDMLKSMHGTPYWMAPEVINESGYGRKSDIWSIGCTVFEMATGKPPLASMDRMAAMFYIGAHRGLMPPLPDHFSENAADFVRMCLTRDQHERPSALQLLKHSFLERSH
The experiment in a line: Selectivity interaction (Ambit KINOMEscan and KiNATiv profiling in Jurkat cells) EUB0000090b MAP3K19. To be noted: at 1 µM. The format is cell-based.

The target of test [5] is T2, Muscle, skeletal receptor tyrosine-protein kinase (Homo sapiens) (UniProt O15146).
T2 sequence (whole entry): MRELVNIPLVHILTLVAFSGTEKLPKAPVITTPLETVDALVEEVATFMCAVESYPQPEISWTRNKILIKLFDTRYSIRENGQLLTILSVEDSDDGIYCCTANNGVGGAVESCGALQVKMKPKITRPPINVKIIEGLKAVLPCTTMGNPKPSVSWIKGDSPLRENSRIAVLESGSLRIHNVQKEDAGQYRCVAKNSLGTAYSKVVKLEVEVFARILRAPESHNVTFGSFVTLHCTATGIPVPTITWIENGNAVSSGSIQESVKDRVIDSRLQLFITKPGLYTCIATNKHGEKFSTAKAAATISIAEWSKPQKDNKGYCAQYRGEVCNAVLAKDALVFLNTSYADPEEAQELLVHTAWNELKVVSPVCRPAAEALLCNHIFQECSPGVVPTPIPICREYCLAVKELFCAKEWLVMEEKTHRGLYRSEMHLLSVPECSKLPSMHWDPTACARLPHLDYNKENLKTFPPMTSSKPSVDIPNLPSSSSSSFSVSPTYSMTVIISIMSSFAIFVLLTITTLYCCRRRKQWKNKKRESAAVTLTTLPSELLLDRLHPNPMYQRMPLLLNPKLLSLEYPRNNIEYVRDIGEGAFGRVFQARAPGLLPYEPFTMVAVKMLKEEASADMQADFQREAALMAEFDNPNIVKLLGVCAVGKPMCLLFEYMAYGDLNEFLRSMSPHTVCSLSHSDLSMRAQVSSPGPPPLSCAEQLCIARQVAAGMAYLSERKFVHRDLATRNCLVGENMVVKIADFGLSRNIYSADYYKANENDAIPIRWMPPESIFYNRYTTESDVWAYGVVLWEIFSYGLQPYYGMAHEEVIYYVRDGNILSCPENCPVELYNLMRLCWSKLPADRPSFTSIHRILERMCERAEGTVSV
The experiment in a line: Selectivity interaction (Ambit KINOMEscan and KiNATiv profiling in Jurkat cells) EUB0000090b MUSK. The format is cell-based. The note with it: at 1 µM.

For test [6], the target named is Phosphorylase b kinase gamma catalytic chain, skeletal muscle/heart isoform (Homo sapiens) (UniProt Q16816). The experiment in a line: Selectivity interaction (KinomeScan (DiscoverX)) EUB0000655a PHKG1. To be noted: at 10 µM.
Sequence of Phosphorylase b kinase gamma catalytic chain, skeletal muscle/heart isoform (Homo sapiens) (Q16816 whole entry, looked up, canonical isoform): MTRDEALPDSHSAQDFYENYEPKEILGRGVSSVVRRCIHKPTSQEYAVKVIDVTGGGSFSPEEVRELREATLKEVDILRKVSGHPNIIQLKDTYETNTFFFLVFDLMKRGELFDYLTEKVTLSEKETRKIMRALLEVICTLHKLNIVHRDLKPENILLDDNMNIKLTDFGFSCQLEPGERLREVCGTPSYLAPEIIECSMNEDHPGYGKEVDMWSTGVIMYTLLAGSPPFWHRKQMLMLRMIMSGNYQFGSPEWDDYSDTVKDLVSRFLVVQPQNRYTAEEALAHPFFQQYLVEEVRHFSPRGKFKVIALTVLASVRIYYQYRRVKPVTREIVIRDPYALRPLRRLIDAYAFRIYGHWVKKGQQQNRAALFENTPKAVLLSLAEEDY
Test [7] concerns the target Histone-lysine N-methyltransferase NSD3 (Homo sapiens, UniProt Q9BZ95). Nature of the test: Selectivity interaction (Binding affinity assay (SPR measurement)) EUB0000270b NSD3. Background: Surface plasmon resonance follows binding to a sensor surface in real time, without labels.
The target in test [8] is Histone-lysine N-methyltransferase, H3 lysine-36 specific (Homo sapiens) (UniProt Q96L73). The experiment in a line: Selectivity interaction (Methyltransferase screen (radiometric assays, panel of 8 PRMTs, 21 protein lysine methyltransferases, 3 DNA methyltransferases, and one RNA methyltransferase)) EUB0000272b NSD1.
Sequence of Histone-lysine N-methyltransferase, H3 lysine-36 specific (Homo sapiens) (Q96L73 whole entry): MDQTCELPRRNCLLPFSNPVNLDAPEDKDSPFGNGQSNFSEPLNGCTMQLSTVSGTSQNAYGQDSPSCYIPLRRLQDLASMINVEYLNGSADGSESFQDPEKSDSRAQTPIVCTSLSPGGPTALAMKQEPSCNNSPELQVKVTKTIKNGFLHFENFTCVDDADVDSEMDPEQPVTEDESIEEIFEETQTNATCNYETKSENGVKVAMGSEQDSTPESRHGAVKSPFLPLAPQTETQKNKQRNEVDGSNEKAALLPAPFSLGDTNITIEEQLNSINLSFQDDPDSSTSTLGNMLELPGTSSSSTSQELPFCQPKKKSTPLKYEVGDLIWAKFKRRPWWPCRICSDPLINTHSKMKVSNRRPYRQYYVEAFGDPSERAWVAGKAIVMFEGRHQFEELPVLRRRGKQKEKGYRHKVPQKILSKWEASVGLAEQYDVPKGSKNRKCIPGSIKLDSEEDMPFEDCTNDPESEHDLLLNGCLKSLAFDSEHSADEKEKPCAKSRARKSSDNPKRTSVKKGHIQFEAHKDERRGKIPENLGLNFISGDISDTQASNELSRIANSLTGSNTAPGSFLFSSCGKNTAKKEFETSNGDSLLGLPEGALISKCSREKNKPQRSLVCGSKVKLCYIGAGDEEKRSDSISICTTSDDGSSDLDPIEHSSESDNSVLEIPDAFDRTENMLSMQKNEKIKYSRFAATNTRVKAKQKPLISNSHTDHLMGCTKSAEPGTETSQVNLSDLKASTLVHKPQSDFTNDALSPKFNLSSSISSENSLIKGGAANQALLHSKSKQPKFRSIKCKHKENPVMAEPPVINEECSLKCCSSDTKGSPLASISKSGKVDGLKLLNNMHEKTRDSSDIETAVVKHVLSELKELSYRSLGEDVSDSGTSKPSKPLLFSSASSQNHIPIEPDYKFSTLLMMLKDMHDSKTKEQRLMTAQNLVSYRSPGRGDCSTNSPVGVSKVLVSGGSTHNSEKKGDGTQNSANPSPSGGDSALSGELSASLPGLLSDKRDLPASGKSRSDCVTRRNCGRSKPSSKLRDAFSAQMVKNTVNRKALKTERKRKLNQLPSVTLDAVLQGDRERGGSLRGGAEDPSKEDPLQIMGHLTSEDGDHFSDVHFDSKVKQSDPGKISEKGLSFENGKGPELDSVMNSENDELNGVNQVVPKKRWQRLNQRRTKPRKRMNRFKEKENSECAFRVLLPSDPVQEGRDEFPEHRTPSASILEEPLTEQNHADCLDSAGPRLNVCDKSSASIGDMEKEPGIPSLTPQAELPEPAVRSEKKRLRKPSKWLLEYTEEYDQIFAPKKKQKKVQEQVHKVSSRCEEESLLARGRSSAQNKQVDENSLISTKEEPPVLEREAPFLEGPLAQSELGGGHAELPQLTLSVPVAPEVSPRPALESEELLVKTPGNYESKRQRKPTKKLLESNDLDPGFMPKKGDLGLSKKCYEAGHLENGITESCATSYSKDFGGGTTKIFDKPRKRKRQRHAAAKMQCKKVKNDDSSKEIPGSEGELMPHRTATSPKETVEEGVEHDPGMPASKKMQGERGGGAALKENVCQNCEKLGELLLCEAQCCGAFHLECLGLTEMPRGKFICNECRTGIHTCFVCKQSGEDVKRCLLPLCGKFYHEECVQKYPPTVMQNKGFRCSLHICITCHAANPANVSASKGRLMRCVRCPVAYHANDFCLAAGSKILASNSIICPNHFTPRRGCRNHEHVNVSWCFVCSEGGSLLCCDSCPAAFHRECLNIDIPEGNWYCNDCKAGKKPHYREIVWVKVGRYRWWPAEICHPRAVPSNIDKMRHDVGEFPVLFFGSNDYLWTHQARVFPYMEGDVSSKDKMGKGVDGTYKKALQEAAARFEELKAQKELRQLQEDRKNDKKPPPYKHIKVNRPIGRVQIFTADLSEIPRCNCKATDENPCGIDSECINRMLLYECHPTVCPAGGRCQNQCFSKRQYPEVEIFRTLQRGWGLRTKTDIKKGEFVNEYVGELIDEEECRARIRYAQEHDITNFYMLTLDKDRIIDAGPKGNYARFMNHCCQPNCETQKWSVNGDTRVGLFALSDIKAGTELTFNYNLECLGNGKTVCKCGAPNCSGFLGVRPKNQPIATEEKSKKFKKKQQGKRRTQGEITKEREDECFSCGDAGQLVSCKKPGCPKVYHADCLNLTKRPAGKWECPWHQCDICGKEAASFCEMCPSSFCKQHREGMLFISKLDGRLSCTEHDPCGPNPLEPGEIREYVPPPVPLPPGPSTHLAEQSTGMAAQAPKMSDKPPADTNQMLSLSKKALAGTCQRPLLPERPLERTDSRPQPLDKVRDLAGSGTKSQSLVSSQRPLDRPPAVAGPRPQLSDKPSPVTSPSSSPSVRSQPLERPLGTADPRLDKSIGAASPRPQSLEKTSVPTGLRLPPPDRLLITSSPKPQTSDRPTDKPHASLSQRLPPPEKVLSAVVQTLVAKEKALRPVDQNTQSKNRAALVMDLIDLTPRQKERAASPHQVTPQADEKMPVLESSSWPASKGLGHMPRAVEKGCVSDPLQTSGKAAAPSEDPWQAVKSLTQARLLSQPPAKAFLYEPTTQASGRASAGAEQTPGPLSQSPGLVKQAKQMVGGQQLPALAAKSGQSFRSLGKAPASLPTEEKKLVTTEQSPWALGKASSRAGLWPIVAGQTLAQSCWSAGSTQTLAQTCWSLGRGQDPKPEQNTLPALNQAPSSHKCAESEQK

Sequence of Casein kinase I isoform gamma-3 (Homo sapiens) (Q9Y6M4 whole entry, looked up, canonical isoform): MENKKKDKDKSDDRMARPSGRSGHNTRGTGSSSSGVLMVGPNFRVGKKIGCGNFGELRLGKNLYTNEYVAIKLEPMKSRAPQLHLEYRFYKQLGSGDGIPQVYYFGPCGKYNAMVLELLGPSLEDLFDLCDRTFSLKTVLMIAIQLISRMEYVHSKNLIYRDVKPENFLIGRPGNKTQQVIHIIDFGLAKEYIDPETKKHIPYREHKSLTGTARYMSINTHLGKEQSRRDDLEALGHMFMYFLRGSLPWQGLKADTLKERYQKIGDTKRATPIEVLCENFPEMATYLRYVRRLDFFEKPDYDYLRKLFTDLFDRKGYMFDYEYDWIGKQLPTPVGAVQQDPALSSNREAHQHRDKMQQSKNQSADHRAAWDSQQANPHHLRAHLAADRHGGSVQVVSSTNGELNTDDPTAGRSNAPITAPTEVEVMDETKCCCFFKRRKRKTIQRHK

As for `Cn1cc(-n2cnc3c(NCc4nc5cc(Cl)c(Cl)cc5[nH]4)nc(N4CCOCC4)nc32)cn1`, the % of control in test [1] stood at 6.17%. Regarding `O=C(NOC[C@H](O)CO)c1ccc(F)c(F)c1Nc1ccc(I)cc1F`, in test [2], the % of control came out at 66%. Broadly, the pIC50 is the negative decadic logarithm of the IC50, by convention in mol/L. Take `CN(C)CC#Cc1ccc2[nH]c3c(c2c1)-c1nc(N)ncc1CCC3`: in test [3], the pIC50 was 6.42.

`CN(C)C/C=C/C(=O)Nc1ccc(C(=O)N2CCCC(Nc3ncc(Cl)c(-c4c[nH]c5ccccc45)n3)C2)cc1` (centres undefined): the % of control in test [4] is 98%; in test [5], 96%. As to `CN(C)CCOc1ccc(-c2nc(-c3ccncc3)c(-c3ccc4c(c3)CC/C4=N\O)[nH]2)cc1`, the % of control in test [6] was 94%. Broadly, the pKd is −log10 of the Kd, conventionally taken in molar units. A high value points to a low Kd. As for `Cc1cc(CN)cc(C)c1-c1ncn(C)c1-c1cncn1C`, the pKd in test [7] was 3.84. Turning to `Cc1cc(C)cc([C@H]2c3cc(C)ccc3NC(=O)CN2C(=O)c2ccc(Br)s2)c1`, the results for the % of activity in test [8] (at 1 µM) and in test [8] (at 10 µM) were 100% and 102%, respectively.
